Results taken from ChEMBL document CHEMBL1141406, “Design, synthesis, and evaluation of naphthalene-sulfonamide antagonists of human CCR8” (J Med Chem, 2007).

Experiments:
[1] = molecular target: T1, C-C chemokine receptor type 8 (Homo sapiens, UniProt P51685); assay: Antagonist activity against human CCR8 expressed in CHO/Galpha16 cells assessed as inhibition of CCL1-induced increase of intracellular calcium by FLIPR assay; format: functional, cell-based
[2] = molecular target: T1, C-C chemokine receptor type 8; assay: Binding affinity to human CCR8 expressed in L1.2 cells by FMAT assay; format: cell-based
[3] = Stability in mouse plasma; format: ADME, cell-free
[4] = Apparent permeability from basolateral to apical side of Caco-2 cells; format: ADME, cell-based; details: human
[5] = Apparent permeability from apical to basolateral side of Caco-2 cells; format: ADME, cell-based; details: human
[6] = Intrinsic clearance in liver microsomes; details: human
[7] = Ratio of apparent permeability from basolateral to apical over apical to basolateral in Caco-2 cells; details: human, read-out: Selectivity ratio
[8] = molecular target: Histamine H2 receptor (Rattus norvegicus) (UniProt P25102); assay: Inhibition of rat histamine H2 receptor at 10 uM
Sequence of Histamine H2 receptor (Rattus norvegicus) (P25102 whole entry): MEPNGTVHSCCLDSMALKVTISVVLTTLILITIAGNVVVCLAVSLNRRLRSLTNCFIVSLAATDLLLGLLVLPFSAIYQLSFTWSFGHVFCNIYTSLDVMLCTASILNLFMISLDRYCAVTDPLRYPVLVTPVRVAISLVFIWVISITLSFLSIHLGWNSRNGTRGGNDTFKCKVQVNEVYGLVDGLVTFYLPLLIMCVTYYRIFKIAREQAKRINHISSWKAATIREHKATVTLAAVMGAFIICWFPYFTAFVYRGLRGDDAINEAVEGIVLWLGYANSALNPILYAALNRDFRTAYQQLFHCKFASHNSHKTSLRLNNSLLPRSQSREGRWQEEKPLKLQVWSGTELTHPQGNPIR

[9] = molecular target: Sodium-dependent serotonin transporter (Rattus norvegicus) (UniProt P31652); assay: Inhibition of rat serotonin transporter at 10 uM
Sequence of Sodium-dependent serotonin transporter (Rattus norvegicus) (P31652 whole entry): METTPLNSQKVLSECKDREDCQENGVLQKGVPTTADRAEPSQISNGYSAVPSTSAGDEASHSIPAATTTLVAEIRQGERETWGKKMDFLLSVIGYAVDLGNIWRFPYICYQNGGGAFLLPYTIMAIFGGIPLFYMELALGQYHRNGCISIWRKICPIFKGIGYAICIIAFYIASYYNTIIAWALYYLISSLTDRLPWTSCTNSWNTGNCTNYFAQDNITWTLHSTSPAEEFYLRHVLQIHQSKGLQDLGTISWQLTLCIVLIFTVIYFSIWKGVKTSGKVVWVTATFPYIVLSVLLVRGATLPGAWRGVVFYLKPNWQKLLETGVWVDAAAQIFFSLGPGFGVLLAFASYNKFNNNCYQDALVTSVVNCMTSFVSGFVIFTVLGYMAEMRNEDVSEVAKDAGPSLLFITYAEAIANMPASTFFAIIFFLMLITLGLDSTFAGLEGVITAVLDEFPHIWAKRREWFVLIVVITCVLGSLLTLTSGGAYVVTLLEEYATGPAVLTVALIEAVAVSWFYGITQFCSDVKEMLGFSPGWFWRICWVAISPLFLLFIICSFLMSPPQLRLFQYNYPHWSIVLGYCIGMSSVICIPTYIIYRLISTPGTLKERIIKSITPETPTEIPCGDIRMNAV

[10] = molecular target: Beta-1 adrenergic receptor (Homo sapiens) (UniProt P08588); assay: Inhibition of human adrenergic beta 1 receptor at 10 uM
Sequence of Beta-1 adrenergic receptor (Homo sapiens) (P08588 whole entry, looked up): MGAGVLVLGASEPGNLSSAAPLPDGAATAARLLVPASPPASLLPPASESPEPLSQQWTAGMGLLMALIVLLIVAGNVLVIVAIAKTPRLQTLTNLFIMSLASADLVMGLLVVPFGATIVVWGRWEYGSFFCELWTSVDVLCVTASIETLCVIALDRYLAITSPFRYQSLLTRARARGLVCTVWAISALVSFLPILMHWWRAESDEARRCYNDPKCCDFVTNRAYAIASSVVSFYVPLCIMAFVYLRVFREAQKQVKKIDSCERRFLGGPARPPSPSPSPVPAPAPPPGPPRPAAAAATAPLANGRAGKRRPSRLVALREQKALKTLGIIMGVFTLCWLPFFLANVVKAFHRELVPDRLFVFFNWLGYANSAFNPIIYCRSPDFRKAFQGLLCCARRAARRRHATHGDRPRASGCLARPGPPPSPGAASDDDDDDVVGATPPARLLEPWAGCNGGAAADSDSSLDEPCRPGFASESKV

[11] = molecular target: 5-hydroxytryptamine receptor 1B (Homo sapiens) (UniProt P28222); assay: Inhibition of 5HT1B receptor at 10 uM
Sequence of 5-hydroxytryptamine receptor 1B (Homo sapiens) (P28222 whole entry): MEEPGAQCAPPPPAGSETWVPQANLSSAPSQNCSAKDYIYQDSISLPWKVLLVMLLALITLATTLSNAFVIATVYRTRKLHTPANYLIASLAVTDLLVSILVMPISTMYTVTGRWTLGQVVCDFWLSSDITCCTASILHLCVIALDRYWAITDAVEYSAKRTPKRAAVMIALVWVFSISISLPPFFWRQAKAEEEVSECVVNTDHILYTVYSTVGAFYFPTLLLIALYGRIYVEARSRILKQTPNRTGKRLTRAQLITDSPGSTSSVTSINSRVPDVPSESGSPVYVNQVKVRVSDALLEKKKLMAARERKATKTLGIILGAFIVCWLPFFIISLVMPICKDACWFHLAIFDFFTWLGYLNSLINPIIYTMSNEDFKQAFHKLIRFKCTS

[12] = Stability in rat at 10 mg/kg, po and 1 mg/kg, iv; format: ADME, organism-based; details: in vivo
[13] = species on record: Rattus norvegicus; assay: Inhibition of rat non-selective opiate receptor at 10 uM
[14] = molecular target: Adrenergic receptor alpha-1 (Homo sapiens) (UniProt P35348+P25100+P35368); assay: Inhibition of non selective adrenergic alpha-1 receptor at 10 uM; format: protein assay
[15] = molecular target: T2, Cholecystokinin receptor type A (Rattus norvegicus) (UniProt P30551); assay: Inhibition of rat CCKA at 10 uM
T2 sequence (whole entry): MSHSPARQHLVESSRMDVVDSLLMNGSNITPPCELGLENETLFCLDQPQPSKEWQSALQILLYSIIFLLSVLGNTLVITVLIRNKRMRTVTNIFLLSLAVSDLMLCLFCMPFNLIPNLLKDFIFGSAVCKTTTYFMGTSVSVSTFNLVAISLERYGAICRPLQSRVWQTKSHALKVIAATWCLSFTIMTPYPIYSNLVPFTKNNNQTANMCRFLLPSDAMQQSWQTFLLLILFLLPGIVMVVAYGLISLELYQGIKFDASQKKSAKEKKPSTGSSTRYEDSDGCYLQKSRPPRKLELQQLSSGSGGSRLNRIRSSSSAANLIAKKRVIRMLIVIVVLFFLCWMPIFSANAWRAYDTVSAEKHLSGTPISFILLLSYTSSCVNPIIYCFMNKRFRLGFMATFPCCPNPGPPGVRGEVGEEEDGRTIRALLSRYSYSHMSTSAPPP

[16] = molecular target: 5-hydroxytryptamine receptor 2A (Homo sapiens) (UniProt P28223); assay: Inhibition of human 5HT2A receptor at 10 uM
Sequence of 5-hydroxytryptamine receptor 2A (Homo sapiens) (P28223 whole entry): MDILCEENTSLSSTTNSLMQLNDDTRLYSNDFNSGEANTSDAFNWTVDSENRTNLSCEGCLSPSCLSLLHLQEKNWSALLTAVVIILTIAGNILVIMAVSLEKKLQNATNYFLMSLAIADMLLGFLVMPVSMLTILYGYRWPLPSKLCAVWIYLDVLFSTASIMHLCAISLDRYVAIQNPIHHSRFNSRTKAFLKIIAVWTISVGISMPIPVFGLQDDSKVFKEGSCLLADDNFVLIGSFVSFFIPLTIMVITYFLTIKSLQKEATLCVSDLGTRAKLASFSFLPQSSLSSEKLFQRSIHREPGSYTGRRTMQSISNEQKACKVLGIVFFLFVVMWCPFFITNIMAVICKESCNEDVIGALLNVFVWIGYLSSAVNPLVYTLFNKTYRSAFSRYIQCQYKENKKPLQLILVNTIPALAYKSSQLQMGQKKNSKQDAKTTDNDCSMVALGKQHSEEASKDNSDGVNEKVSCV

[17] = Clearance in rat at 10 mg/kg, po and 1 mg/kg, iv; format: ADME, organism-based; details: in vivo
[18] = Volume of distribution of steady state in rat at 10 mg/kg, po and 1 mg/kg, iv; format: ADME, organism-based; details: in vivo, read-out: Vss
[19] = molecular target: Muscarinic acetylcholine receptor (Homo sapiens) (UniProt P20309+P08173+P11229+P08172+P08912); assay: Inhibition of peripheral non-selective guinea pig muscarinic receptor at 10 uM; format: protein assay; details: Cavia porcellus, target entry is the homologue from another species
[20] = molecular target: Cytochrome P450 3A4 (Homo sapiens, UniProt P08684); assay: Inhibition of CYP3A4; format: ADME
[21] = Stability in dog at 10 mg/kg, po and 1 mg/kg, iv; format: ADME, organism-based, Canis lupus familiaris; details: in vivo
[22] = Bioavailability in dog at 10 mg/kg, po and 1 mg/kg, iv; format: ADME, organism-based, Canis lupus familiaris; details: in vivo
[23] = species on record: Rattus norvegicus; assay: Inhibition of rat calcium channel L type at benzothiazepine site at 10 uM
[24] = molecular target: Beta-2 adrenergic receptor (Homo sapiens) (UniProt P07550); assay: Inhibition of human recombinant adrenergic beta 2 receptor at 10 uM
Sequence of Beta-2 adrenergic receptor (Homo sapiens) (P07550 whole entry, looked up): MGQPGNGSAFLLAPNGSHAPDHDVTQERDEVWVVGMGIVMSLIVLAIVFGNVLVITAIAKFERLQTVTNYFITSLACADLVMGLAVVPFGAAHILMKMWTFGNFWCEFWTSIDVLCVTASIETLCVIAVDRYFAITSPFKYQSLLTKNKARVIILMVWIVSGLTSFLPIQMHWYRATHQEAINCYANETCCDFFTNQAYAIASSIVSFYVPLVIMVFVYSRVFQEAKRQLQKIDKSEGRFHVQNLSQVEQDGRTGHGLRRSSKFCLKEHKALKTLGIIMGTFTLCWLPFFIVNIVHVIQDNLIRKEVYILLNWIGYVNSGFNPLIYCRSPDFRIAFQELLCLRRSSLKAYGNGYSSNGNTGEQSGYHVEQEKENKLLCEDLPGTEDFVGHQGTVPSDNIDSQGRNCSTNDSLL

[25] = molecular target: Voltage-gated inwardly rectifying potassium channel KCNH2 (Homo sapiens, UniProt Q12809); assay: Binding affinity to hERG expressed in HEK293 cells; format: cell-based
Sequence of Voltage-gated inwardly rectifying potassium channel KCNH2 (Q12809 whole entry): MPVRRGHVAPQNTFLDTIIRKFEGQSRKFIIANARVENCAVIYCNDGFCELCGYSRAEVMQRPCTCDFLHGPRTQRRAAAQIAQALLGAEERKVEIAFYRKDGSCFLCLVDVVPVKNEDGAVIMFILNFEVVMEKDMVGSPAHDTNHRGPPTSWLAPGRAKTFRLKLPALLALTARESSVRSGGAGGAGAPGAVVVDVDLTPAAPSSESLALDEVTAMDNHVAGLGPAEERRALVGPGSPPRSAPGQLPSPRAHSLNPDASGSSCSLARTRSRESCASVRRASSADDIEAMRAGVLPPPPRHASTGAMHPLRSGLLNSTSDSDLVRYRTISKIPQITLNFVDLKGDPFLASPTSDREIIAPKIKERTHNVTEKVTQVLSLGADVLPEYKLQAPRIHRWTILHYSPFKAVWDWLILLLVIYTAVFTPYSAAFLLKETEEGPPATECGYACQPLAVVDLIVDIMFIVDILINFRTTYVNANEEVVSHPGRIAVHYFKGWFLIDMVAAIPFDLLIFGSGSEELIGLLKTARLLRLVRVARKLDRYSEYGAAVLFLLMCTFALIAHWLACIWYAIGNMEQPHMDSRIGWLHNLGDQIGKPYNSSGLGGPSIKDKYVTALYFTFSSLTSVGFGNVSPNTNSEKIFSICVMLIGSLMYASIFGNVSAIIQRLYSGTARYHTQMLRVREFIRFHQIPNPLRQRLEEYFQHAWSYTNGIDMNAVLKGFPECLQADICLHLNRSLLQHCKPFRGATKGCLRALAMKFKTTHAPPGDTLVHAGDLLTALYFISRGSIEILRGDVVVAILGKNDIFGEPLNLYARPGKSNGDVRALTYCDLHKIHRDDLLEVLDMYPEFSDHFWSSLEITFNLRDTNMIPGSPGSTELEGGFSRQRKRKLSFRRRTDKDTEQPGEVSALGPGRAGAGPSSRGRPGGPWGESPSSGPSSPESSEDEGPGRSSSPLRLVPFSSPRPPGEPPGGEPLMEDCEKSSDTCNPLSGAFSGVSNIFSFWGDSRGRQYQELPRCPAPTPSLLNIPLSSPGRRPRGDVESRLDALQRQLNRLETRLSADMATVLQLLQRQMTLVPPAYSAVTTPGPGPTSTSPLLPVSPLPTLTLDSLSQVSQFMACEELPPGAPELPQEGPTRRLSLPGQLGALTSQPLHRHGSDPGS

[26] = molecular target: Sodium-dependent dopamine transporter (Rattus norvegicus) (UniProt P23977); assay: Inhibition of rat dopamine transporter at 10 uM
Sequence of Sodium-dependent dopamine transporter (Rattus norvegicus) (P23977 whole entry): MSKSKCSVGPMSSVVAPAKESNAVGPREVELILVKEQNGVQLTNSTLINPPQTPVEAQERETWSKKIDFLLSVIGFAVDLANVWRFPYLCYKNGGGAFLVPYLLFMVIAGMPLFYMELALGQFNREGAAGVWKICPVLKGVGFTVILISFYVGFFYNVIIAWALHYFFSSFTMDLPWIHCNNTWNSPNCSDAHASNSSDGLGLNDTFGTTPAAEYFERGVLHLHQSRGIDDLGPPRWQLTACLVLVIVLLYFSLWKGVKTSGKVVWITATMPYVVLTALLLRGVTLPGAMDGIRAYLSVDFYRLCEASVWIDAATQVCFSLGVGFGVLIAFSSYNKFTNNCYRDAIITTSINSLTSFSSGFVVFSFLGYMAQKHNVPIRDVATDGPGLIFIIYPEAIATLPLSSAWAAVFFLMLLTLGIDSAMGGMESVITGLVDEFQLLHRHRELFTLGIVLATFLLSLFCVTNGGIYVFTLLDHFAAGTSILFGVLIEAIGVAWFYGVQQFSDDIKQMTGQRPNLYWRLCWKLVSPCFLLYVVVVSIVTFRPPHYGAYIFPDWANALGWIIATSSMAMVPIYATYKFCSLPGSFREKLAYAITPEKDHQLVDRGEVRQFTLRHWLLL

[27] = Bioavailability in rat at 10 mg/kg, po and 1 mg/kg, iv; format: ADME, organism-based; details: in vivo
[28] = species on record: Rattus norvegicus; assay: Inhibition of rat calcium channel L type at dihydropyridine site at 10 uM
[29] = molecular target: D(1A) dopamine receptor (Homo sapiens) (UniProt P21728); assay: Inhibition of human recombinant dopamine D1 receptor at 10 uM
[30] = Volume of distribution of steady state in dog at 10 mg/kg, po and 1 mg/kg, iv; format: ADME, organism-based, Canis lupus familiaris; details: in vivo, read-out: Vss
[31] = molecular target: T3, 5-hydroxytryptamine receptor 1A (Homo sapiens) (UniProt P08908); assay: Inhibition of human recombinant 5HT1A receptor at 10 uM
T3 sequence (whole entry): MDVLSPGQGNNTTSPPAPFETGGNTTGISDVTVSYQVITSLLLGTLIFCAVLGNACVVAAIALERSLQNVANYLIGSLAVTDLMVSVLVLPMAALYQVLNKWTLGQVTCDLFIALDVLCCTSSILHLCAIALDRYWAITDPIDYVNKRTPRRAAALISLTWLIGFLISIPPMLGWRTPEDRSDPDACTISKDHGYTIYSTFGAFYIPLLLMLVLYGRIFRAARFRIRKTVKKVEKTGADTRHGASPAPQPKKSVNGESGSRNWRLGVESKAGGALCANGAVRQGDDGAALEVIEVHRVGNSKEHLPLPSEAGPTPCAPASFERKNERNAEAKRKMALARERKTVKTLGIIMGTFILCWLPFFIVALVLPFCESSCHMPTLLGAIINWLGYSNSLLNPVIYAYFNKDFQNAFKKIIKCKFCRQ

[32] = Clearance in dog at 10 mg/kg, po and 1 mg/kg, iv; format: ADME, organism-based, Canis lupus familiaris; details: in vivo

T1 sequence (P51685 whole entry): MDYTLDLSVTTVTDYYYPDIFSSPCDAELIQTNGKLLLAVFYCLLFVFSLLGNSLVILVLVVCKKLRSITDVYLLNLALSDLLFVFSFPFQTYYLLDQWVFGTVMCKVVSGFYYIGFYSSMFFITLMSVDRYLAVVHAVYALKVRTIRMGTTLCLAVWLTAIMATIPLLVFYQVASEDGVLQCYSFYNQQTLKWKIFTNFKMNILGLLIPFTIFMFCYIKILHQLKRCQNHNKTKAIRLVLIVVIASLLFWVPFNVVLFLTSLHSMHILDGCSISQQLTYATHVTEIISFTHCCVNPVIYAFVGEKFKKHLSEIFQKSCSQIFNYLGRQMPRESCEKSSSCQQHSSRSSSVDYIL

With `COc1ccc(NS(=O)(=O)c2ccc(NC(=O)c3ccccc3)c3ccccc23)cc1` the IC50 [1] was 150 nM and the Ki [2] was 42.6 nM.
Work on `CCOC(=O)N1CCC(NS(=O)(=O)c2ccc(NC(=O)c3ccccc3)c3ccccc23)CC1` yielded a Ki [2] of 0.17 nM and a half-life [3] of 0.5 h.
`CCCC(=O)N1CCC(NS(=O)(=O)c2ccc(NC(=O)c3ccccc3C)c3ccccc23)CC1` gave a Papp B→A [4] of 34 ×10⁻⁶ cm/s, a Papp A→B [5] of 25 ×10⁻⁶ cm/s and an IC50 [1] of 0.3 nM. The CLint scaled [6] was 51.7 mL/min/kg, the efflux ratio [7] was 1.3 and the Ki [2] was 0.3 nM.
Molecule `CCOC(=O)N1CCC(NS(=O)(=O)c2ccc(NC(=O)c3ccccc3C)c3ccccc23)CC1` has a Papp B→A [4] of 24 ×10⁻⁶ cm/s, an inhibition [8] of 9.16% and a Papp A→B [5] of 17 ×10⁻⁶ cm/s. The inhibition [9] was 12%, the inhibition [10] was 2.44% and the inhibition [11] was 7.13%. It also gave a half-life [12] of 2.6 h, an inhibition [13] of 21.4% and an inhibition [14] of -8.21%. It also gave a CLint scaled [6] of 95 mL/min/kg, an inhibition [15] of -1.01% and an inhibition [16] of 18.4%. It also gave a clearance [17] of 23.3 mL/min/kg, a Vd [18] of 1.6 L/kg and an inhibition [19] of 15.6%. It also gave an efflux ratio [7] of 1.4, an IC50 [20] of over 10000 nM and a Ki [2] of 1.6 nM. For the same molecule, the half-life [21] was 3.7 h, the bioavailability [22] was 10% and the inhibition [23] was 10.2%. For the same molecule, the inhibition [24] was 21.5%, the Ki [25] was over 10000 nM and the inhibition [26] was -9.19%. It also gave a bioavailability [27] of 2%, a half-life [3] of 8.2 h and an inhibition [28] of 5.81%. For the same molecule, the inhibition [29] was -5.14%, the Vd [30] was 1.5 L/kg and the inhibition [31] was 10.5%. The clearance [32] was 7 mL/min/kg.
Work on `CCNC(=O)N1CCC(NS(=O)(=O)c2ccc(NC(=O)c3ccccc3C)c3ccccc23)CC1` yielded a Papp B→A [4] of 22 ×10⁻⁶ cm/s, a Papp A→B [5] of 1.9 ×10⁻⁶ cm/s and a CLint scaled [6] of 46.7 mL/min/kg. For the same molecule, the efflux ratio [7] was 11 and the Ki [2] was 2.2 nM.
In the case of `CCCCc1ccc(C(=O)Nc2ccc(S(=O)(=O)NC3CCN(C(=O)CCC)CC3)c3ccccc23)cc1`, the IC50 [1] is reported as 15.3 nM.
Molecule `CCCC(=O)N1CCC(NS(=O)(=O)c2ccc(NC(=O)c3ccc(F)cc3)c3ccccc23)CC1` has an IC50 [1] of 59.5 nM.
